Test results as given in patent US20090197906A1, “REVERSION OF MALIGNANT PHENOTYPE WITH 9-HYDROXY ELLIPTICINE DERIVATIVES” (priority 2006, published 2009).

How the values were obtained:
NCI-H446 = assay: SRB (sulforhodamine B) cell proliferation assay; type: cell-based, human; settings: NCI-H446, viability 72 h, mean +/− SEM
Experimental: (§1) Growth studies were performed using the Sulforhodamine B (SRB) calorimetric assay (Sigma).
(§2) SRB assay is used for cell density determination based on the measurement of cellular protein content. This method has been optimized for toxicity screening of compounds in adherent cells in a 96-well format (Skehan et al., Proc. Amer. Assoc. Cancer Res. 1989, 30:2436).
(§3) About 50 000 NCI-H510, NCI-H446 or NCI-H187 cells were seeded in a 96-well culture plate while adding increasing concentrations of BA016FZ539.
(§4) After an incubation period, cell monolayers are fixed with 10% (wt/vol) trichloroacetic acid and stained for 30 min, after which the excess dye is removed by washing repeatedly with 1% (vol/vol) acetic acid. The protein-bound dye is dissolved in 10 mM Tris base solution for optic density determination (OD) at 510 nm using a microplate reader.
(§5) The proliferation rates were calculated from the OD readings using the untreated cells as 100%.

NCI-H510 = assay: SRB (sulforhodamine B) cell proliferation assay; type: cell-based, human; settings: NCI-H510, viability 72 h, mean +/− SEM
Experimental: as §1, §2, §3, §4, §5

NCI-H187 = assay: SRB (sulforhodamine B) cell proliferation assay; type: cell-based, human; settings: NCI-H187, viability 72 h, mean +/− SEM
Experimental: as §1, §2, §3, §4, §5

B16F10 [1] = assay: MTT cell proliferation assay; type: cell-based, murine
Experimental: Growth studies were performed using the [3-(4,5 dimethylthiazol-2-yl)-2,5-diphenyl-2H-tetrazolium bromide] (Sigma) calorimetric assay.
About 1500 to 5000 cells, according to the cell line, were seeded in a 96-well culture plate 24 hours before adding increasing concentrations of BA016DD537 or BA016FZ539. The plate was incubated at 37° C. for 3 days. 10 μl MTT stock solution (5 mg/ml in phosphate buffer saline) was added to 90 μl of complete medium in each well, the incubation was continued for 3 h at 37° C. 100 μl of lysis buffer (10% sodium dodecyl sulfate, 1% HCl 1N; pH 4.7) was added to each well, and the plate was incubated overnight. The absorbance was determined using an Integrated EIA Management System (Labsystem) at a wavelength of 570 nm. The proliferation rates were calculated from the OD readings using the untreated cells as 100%.
(§6) Growth studies were performed using both MTT and SRB calorimetric assay (Sigma). About 1500 B16F10 or 3000 pancreatic cells (MIA PaCa-2 and PANC1) were seeded in a 96-well culture plate before adding increasing concentrations of monomesylate or bimesylate.
(§7) The plates were incubated at 37° C. for 3 days and then were treated depending on SRB or MTT protocols (see material and methods).
(§8) In these two cases, the proliferation rates were calculated from the OD readings using the untreated cells as 100%.

B16F10 [2] = assay: cloning assay in methylcellulose (colony formation); type: cell-based, murine
Experimental: (§9) Cells were embedded in complete culture medium supplemented with 0.8% methylcellulose (Methocel MC4000, Sigma), seeded in triplicate into 35-mm dishes (Greiner Bio-one Ref 627102, Dominique Dutscher) and incubated at 37° C. in a humidified 5% CO2 atmosphere. The number of cells seeded was 1000 cells per dish. After one to three weeks, according to cell lines, macroscopic clones were counted.
Cells were embedded in complete culture medium supplemented with 0.8% methyl-cellulose (Methocel MC4000, Sigma), seeded in triplicate into 35-mm dishes and incubated at 37° C. in a humidified 5% CO2 atmosphere. The number of cells seeded was 1000 cells per dish. After 9 days, macroscopic clones of murine melanoma cell line B16F10 were counted.

B16F10 [3] = assay: SRB (sulforhodamine B) cell proliferation assay; type: cell-based, murine; settings: B16F10 (Example 11); read-out: IC50 (SRB Test-72 h)
Experimental: as §6, §7, §8

B16BL6 = assay: cloning assay in methylcellulose (colony formation); type: cell-based; settings: read-out: Inhibition of colony formation (methylcellulose) IC50
Experimental: as §9

SK-N-MC = assay: as above; type: cell-based; settings: read-out: Inhibition of colony formation (methylcellulose) IC50
Experimental: as §9

Melanoma B16 cells = assay: antitumor activity, i.p. grafted B16 melanoma, survival; type: in vivo, B6D2F1 mice
Experimental: Antitumor activity against B16 melanoma can be assessed in mice using i.p. graft of malignant cells followed by i.p. treatment. This type of protocol which by-pass various biodisponibility parameters gives information roughly on the maximal antitumor activity which can be expected for a given tumor.
Melanoma B16 cells (4×10^5) were injected in B6D2F1 mice using i.p. route at J0. Drugs, dissolved in sterile distilled water (0.5 ml) were injected daily using as well i.p. route from J1 to J9 at various concentrations. Control mice received distilled water only according the same protocol.
Treated and control mice were counted daily. TIC (mean survival of treated mice/mean survival of control mice) was calculated at J9.

B16F10 melanoma cells = assay: wound healing assay (cell motility); type: cell-based, murine; settings: 50 nM
Experimental: Wound healing assay was performed to evaluate the effect of BA016DD537 on motility of malignant NIH 3T3 EF cells and melanoma cell lines B16F10 and B16BL6. All the cells were incubated at 37° C. in a humidified 5% CO2 atmosphere. About 100 000-200 000 cells were seeded in a 6-well culture plate and BA016DD537, at the different concentrations, was added 24 hours later. Cells were grown for 3 days to confluence about 90-95% and small scratch-wounds (about 200 μm-1 mm width) were made with a pipette tip. Cell debris were removed, then the cultures were incubated in complete medium for 10 h in the presence of the same concentration of BA016DD537. Then, the cells were fixed for 10 min in PBS containing 3.7% formaldehyde at 4° C.

NIH 3T3 EF = assay: cloning assay in methylcellulose (colony formation); type: cell-based; settings: read-out: Inhibition of colony formation (methylcellulose) IC50
Experimental: as §9

SMILES | IC50 (NCI-H446) [µM] | IC50 (NCI-H510) [µM] | IC50 (NCI-H187) [µM] | IC50 (B16F10 [1]; B16F10 (Example 11), read-out: IC50 (MTT Test-72 h)) [nM] | IC50 (B16F10 [2]; B16F10, clones counted after 9 days (Example 11), listed as Monomesylate, read-out: B16F10 Inhibition of colony formation IC50) [nM] | IC50 (B16F10 [3]) [nM] | IC50 (B16BL6) [nM] | IC50 (SK-N-MC) [nM] | IC50 (B16F10 [1]; B16F10, 3 days, read-out: Cytotoxic effect (MTT) IC50) [nM] | T/C (%) (mean survival of treated mice/mean survival of control mice) (Melanoma B16 cells; 0.39 mg/kg/inj. i.p. daily J1 to J9) | T/C (%) (mean survival of treated mice/mean survival of control mice) (Melanoma B16 cells; 0.78 mg/kg/inj. i.p. daily J1 to J9) | T/C (%) (mean survival of treated mice/mean survival of control mice) (Melanoma B16 cells; 1.56 mg/kg/inj. i.p. daily J1 to J9) | T/C (%) (mean survival of treated mice/mean survival of control mice) (Melanoma B16 cells; 3.12 mg/kg/inj. i.p. daily J1 to J9) | T/C (%) (mean survival of treated mice/mean survival of control mice) (Melanoma B16 cells; 6.25 mg/kg/inj. i.p. daily J1 to J9) | T/C (%) (mean survival of treated mice/mean survival of control mice) (Melanoma B16 cells; 7.5 mg/kg/inj. i.p. daily J1 to J9) | T/C (%) (mean survival of treated mice/mean survival of control mice) (Melanoma B16 cells; 10 mg/kg/inj. i.p. daily J1 to J9) | antitumor activity against B16 melanoma (T/C>125% = significant) (Melanoma B16 cells; i.p. graft, i.p. treatment) | IC50 (B16F10 [2]; B16F10, read-out: Inhibition of colony formation (methylcellulose) IC50) [nM] | inhibition of cell migration (B16F10 melanoma cells) | IC50 (NIH 3T3 EF) [nM]
CS(=O)(=O)[O-].Cc1c2cc[n+](CCN3CCCCC3)cc2c(C)c2c1[nH]c1ccc(O)cc12 [BA016FZ539, 2-(betapiperidino-2-ethyl)-9-hydroxyellipticinium methanesulfonate] | 22.4 | 5.8 | 16.9 | 2000 | 67 | 4300 | 29 | 205 |  |  |  |  |  |  |  |  |  |  |  | 
Cc1c2cc[n+](CCN3CCCCC3)cc2c(C)c2c1[nH]c1ccc(O)cc12.[Cl-] [BA016DD537, 2-(β-piperidinoethyl)-9-hydroxyellipticinium chloride] |  |  |  |  |  |  |  |  | 500 | 133 | 149 | 168 | 217 | 196 | 210 | 87 | marked antitumor activity | 35 | complete inhibition | 30
